Laboratory results published in the supplement of paper PMC10331698.
± gives the standard deviation of the averaged measurements.

Key:
Assay in all cases: level (log10 ratio to DMSO vehicle control); higher = higher biomarker level / cell amount than vehicle control
[1] = compound: C=C(C)C(=O)OCCC(F)(F)C(F)(F)C(F)(F)C(F)(F)C(F)(F)C(F)(F)C(F)(F)C(F)(F)F [8:2 Fluorotelomer methacrylate] (in DMSO)
Procedure: (§1)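 BioMAP Diversity Plus panel of 12 human primary cell co-culture systems (3C, 4H, LPS, SAg, BT, BF4T, BE3C, CASM3C, HDF3CGF, KF3CT, MyoF, Mphg). Compounds were added 1 h before stimulation and left for 24 h (MyoF 48 h; BT 72 h for soluble read-outs or 6 d for IgG). Biomarkers were read by ELISA, cytotoxicity by SRB, PBMC viability and proliferation by Alamar Blue. Each well value was divided by the mean of 8 DMSO control wells on the same plate and log10 transformed; duplicate blinded samples were tested at 4 concentrations.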

[2] = compound: CN(C(=O)C(F)(F)C(F)(F)C(F)(F)F)[Si](C)(C)C [N-Methyl-N-trimethylsilylheptafluorobutyramide] (in DMSO)
Procedure: as §1

[3] = compound: O=C(O)C=C(C(F)(F)F)C(F)(F)F [3,3-Bis(trifluoromethyl)-2-propenoic acid] (in DMSO)
Procedure: as §1

[4] = compound: O=S(=O)(O)C(F)(F)C(F)(F)C(F)(F)C(F)(F)C(F)(F)C(F)(F)C(F)(F)F [Perfluoroheptanesulfonic acid] (in DMSO)
Procedure: as §1

[5] = compound: OCC(F)(F)OC(F)(F)C(F)(F)OC(F)(F)C(F)(F)OC(F)(F)CO [1H,1H,11H,11H-Perfluorotetraethylene glycol] (in DMSO)
Procedure: as §1

[6] = compound: OCCC(F)(F)C(F)(F)C(F)(F)C(F)(F)F [4:2 Fluorotelomer alcohol] (in DMSO)
Procedure: as §1

Test System: 4H:CCL2/MCP-1
- level (log10) ([1]; 6700 nM): -0.0075 ± 0.053
- level (log10) ([1]; 20000 nM): 0.027 ± 0.034
- level (log10) ([2]; 6700 nM): -0.0405 ± 0.028
- level (log10) ([2]; 20000 nM): -0.0525 ± 0.039
- level (log10) ([2]; 60000 nM): 0.0195 ± 0.11
- level (log10) ([3]; 6700 nM): -0.051 ± 0.035
- level (log10) ([3]; 20000 nM): -0.0675 ± 0.005
- level (log10) ([3]; 60000 nM): -0.081 ± 0.052
- level (log10) ([4]; 1500 nM): -0.0125 ± 0.094
- level (log10) ([4]; 4400 nM): 0.0165 ± 0.081
- level (log10) ([4]; 13000 nM): 0.03 ± 0.05
- level (log10) ([4]; 40000 nM): 0.0135 ± 0.012
- level (log10) ([5]; 6700 nM): -0.0525 ± 0.029
- level (log10) ([5]; 20000 nM): -0.126 ± 0.0071
- level (log10) ([5]; 60000 nM): -0.196 ± 0.027
- level (log10) ([6]; 6700 nM): -0.101 ± 0.0071
- level (log10) ([6]; 20000 nM): -0.0325 ± 0.0064
- level (log10) ([6]; 60000 nM): 0.0115 ± 0.025

Test System: SAg:CD69
- level (log10) ([1]; 6700 nM): -0.013 ± 0.016
- level (log10) ([1]; 20000 nM): -0.022 ± 0.013
- level (log10) ([2]; 6700 nM): -0.024 ± 0.0014
- level (log10) ([2]; 20000 nM): 0.0015 ± 0.0078
- level (log10) ([2]; 60000 nM): -0.0025 ± 0.015
- level (log10) ([3]; 6700 nM): -0.0145 ± 0.013
- level (log10) ([3]; 20000 nM): -0.0615 ± 0.0092
- level (log10) ([3]; 60000 nM): -0.171 ± 0.0014
- level (log10) ([4]; 1500 nM): -0.0145 ± 0.029
- level (log10) ([4]; 4400 nM): -0.0175 ± 0.012
- level (log10) ([4]; 13000 nM): -0.004 ± 0.03
- level (log10) ([4]; 40000 nM): 0.0045 ± 0.013
- level (log10) ([5]; 6700 nM): -0.0095 ± 0.1
- level (log10) ([5]; 20000 nM): -0.0275 ± 0.066
- level (log10) ([5]; 60000 nM): -0.162 ± 0.061
- level (log10) ([6]; 6700 nM): -0.0265 ± 0.00071
- level (log10) ([6]; 20000 nM): -0.0115 ± 0.011
- level (log10) ([6]; 60000 nM): -0.0005 ± 0.0092

Test System: BF4T:tPA
- level (log10) ([1]; 6700 nM): -0.027 ± 0.0028
- level (log10) ([1]; 20000 nM): -0.017 ± 0.0057
- level (log10) ([2]; 6700 nM): -0.0155 ± 0.015
- level (log10) ([2]; 20000 nM): 0.0015 ± 0.032
- level (log10) ([2]; 60000 nM): 0.012 ± 0.0057
- level (log10) ([3]; 6700 nM): -0.0965 ± 0.035
- level (log10) ([3]; 20000 nM): -0.12 ± 0.026
- level (log10) ([3]; 60000 nM): -0.11 ± 0.029
- level (log10) ([4]; 1500 nM): 0.0235 ± 0.052
- level (log10) ([4]; 4400 nM): -0.0065 ± 0.0064
- level (log10) ([4]; 13000 nM): -0.0165 ± 0.025
- level (log10) ([4]; 40000 nM): 0.0225 ± 0.039
- level (log10) ([5]; 6700 nM): -0.036 ± 0.0028
- level (log10) ([5]; 20000 nM): -0.0685 ± 0.043
- level (log10) ([5]; 60000 nM): -0.201 ± 0.035
- level (log10) ([6]; 6700 nM): -0.0085 ± 0.056
- level (log10) ([6]; 20000 nM): -0.0155 ± 0.071
- level (log10) ([6]; 60000 nM): 0.022

Test System: BT:sIL-6
- level (log10) ([1]; 6700 nM): 0.0115 ± 0.042
- level (log10) ([1]; 20000 nM): -0.0085 ± 0.11
- level (log10) ([2]; 6700 nM): -0.054 ± 0.021
- level (log10) ([2]; 20000 nM): -0.0635 ± 0.0035
- level (log10) ([2]; 60000 nM): 0.002 ± 0.02
- level (log10) ([3]; 6700 nM): 0.035 ± 0.037
- level (log10) ([3]; 20000 nM): -0.0575 ± 0.026
- level (log10) ([3]; 60000 nM): -0.182 ± 0.018
- level (log10) ([4]; 1500 nM): 0.004 ± 0.013
- level (log10) ([4]; 4400 nM): 0.03 ± 0.013
- level (log10) ([4]; 13000 nM): -0.027 ± 0.011
- level (log10) ([4]; 40000 nM): -0.139 ± 0.057
- level (log10) ([5]; 6700 nM): -0.025 ± 0.014
- level (log10) ([5]; 20000 nM): -0.101 ± 0.048
- level (log10) ([5]; 60000 nM): -0.302 ± 0.017
- level (log10) ([6]; 6700 nM): 0.035 ± 0.02
- level (log10) ([6]; 20000 nM): 0.0455 ± 0.036
- level (log10) ([6]; 60000 nM): 0.009 ± 0.069

Test System: LPS:CD69
- level (log10) ([1]; 6700 nM): -0.0425 ± 0.04
- level (log10) ([1]; 20000 nM): -0.0355 ± 0.05
- level (log10) ([2]; 6700 nM): -0.004 ± 0.011
- level (log10) ([2]; 20000 nM): -0.013 ± 0.041
- level (log10) ([2]; 60000 nM): 0.004 ± 0.011
- level (log10) ([3]; 6700 nM): -0.072 ± 0.02
- level (log10) ([3]; 20000 nM): -0.0565 ± 0.057
- level (log10) ([3]; 60000 nM): -0.028 ± 0.09
- level (log10) ([4]; 1500 nM): -0.01 ± 0.025
- level (log10) ([4]; 4400 nM): -0.006 ± 0.0057
- level (log10) ([4]; 13000 nM): -0.004 ± 0.025
- level (log10) ([4]; 40000 nM): -0.015 ± 0.061
- level (log10) ([5]; 6700 nM): -0.0115 ± 0.025
- level (log10) ([5]; 20000 nM): -0.072 ± 0.035
- level (log10) ([5]; 60000 nM): -0.095 ± 0.011
- level (log10) ([6]; 6700 nM): -0.0295 ± 0.025
- level (log10) ([6]; 20000 nM): -0.0135 ± 0.015
- level (log10) ([6]; 60000 nM): -0.0105 ± 0.025

Test System: BE3C:EGFR
- level (log10) ([1]; 6700 nM): -0.007 ± 0.02
- level (log10) ([1]; 20000 nM): -0.01 ± 0.031
- level (log10) ([2]; 6700 nM): -0.0065 ± 0.00071
- level (log10) ([2]; 20000 nM): -0.0165 ± 0.013
- level (log10) ([2]; 60000 nM): -0.01 ± 0.028
- level (log10) ([3]; 6700 nM): -0.015 ± 0.014
- level (log10) ([3]; 20000 nM): -0.011 ± 0.0085
- level (log10) ([3]; 60000 nM): -0.0015 ± 0.012
- level (log10) ([4]; 1500 nM): 0.019 ± 0.025
- level (log10) ([4]; 4400 nM): -0.008 ± 0.0042
- level (log10) ([4]; 13000 nM): -0.002 ± 0.023
- level (log10) ([4]; 40000 nM): -0.012 ± 0.038
- level (log10) ([5]; 6700 nM): 0.0055 ± 0.011
- level (log10) ([5]; 20000 nM): -0.0005 ± 0.0078
- level (log10) ([5]; 60000 nM): -0.034 ± 0.0014
- level (log10) ([6]; 6700 nM): -0.0165 ± 0.022
- level (log10) ([6]; 20000 nM): -0.002 ± 0.018
- level (log10) ([6]; 60000 nM): 0.0315 ± 0.011

Test System: BF4T:uPA
- level (log10) ([1]; 6700 nM): -0.013 ± 0.013
- level (log10) ([1]; 20000 nM): 0.009 ± 0.0014
- level (log10) ([2]; 6700 nM): -0.013 ± 0.031
- level (log10) ([2]; 20000 nM): -0.012 ± 0.013
- level (log10) ([2]; 60000 nM): -0.008 ± 0.0028
- level (log10) ([3]; 6700 nM): -0.0175 ± 0.0078
- level (log10) ([3]; 20000 nM): -0.0195 ± 0.012
- level (log10) ([3]; 60000 nM): -0.0135 ± 0.013
- level (log10) ([4]; 1500 nM): 0.001 ± 0.018
- level (log10) ([4]; 4400 nM): -0.0035 ± 0.012
- level (log10) ([4]; 13000 nM): -0.017 ± 0.0014
- level (log10) ([4]; 40000 nM): 0.0095 ± 0.0064
- level (log10) ([5]; 6700 nM): -0.0125 ± 0.018
- level (log10) ([5]; 20000 nM): -0.0155 ± 0.013
- level (log10) ([5]; 60000 nM): -0.0215 ± 0.0064
- level (log10) ([6]; 6700 nM): -0.008 ± 0.035
- level (log10) ([6]; 20000 nM): 0.012 ± 0.013
- level (log10) ([6]; 60000 nM): 0.018 ± 0.025

Test System: BF4T:MMP-1
- level (log10) ([1]; 6700 nM): -0.01 ± 0.0085
- level (log10) ([1]; 20000 nM): 0.0055 ± 0.00071
- level (log10) ([2]; 6700 nM): -0.0105 ± 0.04
- level (log10) ([2]; 20000 nM): -0.0105 ± 0.054
- level (log10) ([2]; 60000 nM): 0.0005 ± 0.018
- level (log10) ([3]; 6700 nM): -0.006 ± 0.018
- level (log10) ([3]; 20000 nM): 0 ± 0.0042
- level (log10) ([3]; 60000 nM): 0.0125 ± 0.021
- level (log10) ([4]; 1500 nM): 0.0055 ± 0.0078
- level (log10) ([4]; 4400 nM): -0.0055 ± 0.005
- level (log10) ([4]; 13000 nM): -0.019 ± 0.0014
- level (log10) ([4]; 40000 nM): 0.0225 ± 0.0092
- level (log10) ([5]; 6700 nM): -0.0025 ± 0.016
- level (log10) ([5]; 20000 nM): 0.0005 ± 0.018
- level (log10) ([5]; 60000 nM): 0.0065 ± 0.046
- level (log10) ([6]; 6700 nM): -0.008 ± 0.031
- level (log10) ([6]; 20000 nM): -0.0005 ± 0.036
- level (log10) ([6]; 60000 nM): 0.0085 ± 0.015
